In patent US20040005648A1, “PYK2 related products and methods” (Sugen, Inc., priority 1994, published 2004):
“Also recorded” adds a separate entry of the source. Where two headings read alike, the source gives them in different places.

How the values were obtained:
[1] = tested on: PYK2; assay: Tyrosine phosphorylation of PYK2 in stimulated PC12 cells (anti-PYK2 immunoprecipitation, anti-phosphotyrosine immunoblot); assay type: cell-based, rat
[2] = tested on: Shc; assay: Tyrosine phosphorylation of Shc in stimulated PC12 cells (anti-Shc immunoprecipitation, anti-phosphotyrosine immunoblot); assay type: cell-based, rat; conditions: for effect on carbachol induced tyrosine phosphorylation of Shc: antagonist
Description: Tyrosine phosphorylation of Shc in response to bradykinin, carbachol, PMA and other stimuli was also measured. Quiescent PC12 cells were stimulated for 5 min at 37° C. with bradykinin (1AM), carbachol (1 mM), KC1 (75 mM), PMA (1.6pM), NGF (100 ng/ml), or left unstimulated (−). The cells were also stimulated with carbachol (1 mM) or potassium chloride (75 mM) in the presence of 3 mM EGTA. Stimulations with DMPP (100 μM) or muscarine (1 mM) were preformed under the same conditions. […] The Shc proteins were immunoprecipitated with anti-Shc antibodies, the immunoprecipitates were resolved by SDS-PAGE (8%1, transferred to nitrocellulose and immunoblotted with anti-phosphotyrosine antibodies.

[3] = tested on: PYK-2; assay: Tyrosine phosphorylation of PYK-2 in NIH3T3 cell lines that overexpress PYK-2; assay type: cell-based, mouse; conditions: NIH3T3 cells overexpressing PYK-2 / PYK-2-HA; TPA 6 μM, 15 min at 37° C.
Description: Stable cell lines of NIH3T3 that overexpress PYK2 were established by contransfection of PYK2 subcloned into pLSV together with pSV2neo utilizing lipofectamine reagent (GIBCO BRL). Following transfection the cells were grown in Dulbecco's modified Eagle's medium containing 10% fetal bovine serum and 1 mg/ml G418. Transient transfections into 293 cells were performed by using the calcium phosphate technique (*).
The PYK-2 cDNA cloned in PLSV was cotransfected with pSV2neo into PC12 cells and NIH3T3 in order to establish stable cell lines. G418 resistant colonies were screened by immunoprecipitating and immunoblotting.
NIH3T3 cell lines were established that overexpress the PYK-2 and the PYK-2-HA protein. […] The level of phosphorylation is not so high.

[4] = tested on: Kv1.2 potassium channel; assay: Tyrosine phosphorylation of Kv1.2 potassium channel in 293 cells coexpressing PYK2; assay type: cell-based, human; conditions: 293 cells coexpressing Kv1.2-HA and PYK2; PMA 1.6 μM, calcium ionophore 6 μM
[5] = tested on: PYK2; assay: Tyrosine phosphorylation of PYK2 in transiently transfected 293 cells; assay type: cell-based, human; conditions: PMA 1.6 μM, calcium ionophore 6 μM
Description: We examined the possibility whether PYK2 can tyrosine phosphorylate the Kv1.2 channel and regulate its function. In order to test this possibility, we expressed in 293 cells the Kv1.2 protein, Kv1.2 together with PYK2, and as a control Kv1.2 with a kinase negative PYK2 mutant (PKN) or with the protein tyrosine kinase Fak. The cells were grown for 24 hours in medium containing 0.2% serum and then stimulated with PMA (1.6 μM), calcium ionophore (6 μM), or left unstimulated.
Embryonic human kidney 293 cells were transiently transfected with different combinations of mammalian expression vectors which direct the synthesis of Kv1.2-HA, PYK2, a kinase negative PYK2 (PKN) or the protein tyrosine kinase Fak. The cells were grown for 24 h in the presence of 0.2% serum and then either stimulated with PMA (1.6 μM, 10 min at 37° C.), the calcium ionophore A23187 (6 μM, 10 min at 37° C.) or left unstimulated (−).
Tyrosine phosphorylation of each protein was analysed following immunoprecipitation and immunoblotting with anti-phosphotyrosine antibodies. The expression of each protein was determined by immunoblot analysis of total cell lysates from each transfection with anti-PYK2, anti-HA or anti-Fak antibodies.

[6] = tested on: Kv1.2 channel; assay: Kv1.2 currents in microinjected Xenopus oocytes, two microelectrode voltage-clamp; assay type: cell-based, Xenopus laevis; conditions: for inhibition of outward current: 8 min after addition of 100 nM PMA
Description: In vitro capped RNA transcripts of Kv1.2, PYK2 and PKN were synthesized from linearized plasmids DNA templates utilizing the mMESSAGE MMACHINE kit (Ambion), following the supplier's protocols. The products of the transcription reaction (cRNAs) were diluted in RNAse-free water and stored at −70° C. Expression of the RNAs was done by injection of 50nl of RNA into defolliculated stage V and VI oocytes from Xenopus laevis (Iverson et al., J. Neurosc. 10, 2903-2916, 1990). The injected oocytes were incubated for 2-3 days at 20° C. in L15 solution (1:2 dilution of Gibco's Leibovitz L15 medum in H20, with 50U/ml nystatin, 0.1 mg/ml gentamycin, 30 mM HEPES buffer, pH 7.3-7.4, filtered through a […] membrane). Electrophysiological Recording and analysis. Ionic currents were recorded with a two microelectrode voltage-clamp as described (Iverson et al., suDra). The current were low-pass filtered KHz using an 8-pole Bessel filter and stored in a 80286 microcomputer using the pclamp acquisition system (Axon Instruments). The data was analyzed with the clamp fit pro-rams of the pCIamp system (Axon Instruments). All recording were performed at room temperature ([…]). The recording chamber was continually perfused with recording solution. To avoid contamination of the oocyte by Ca+^2-activated Cl^− currents low Cl^− recording solution was used (96 mM Na+, glutamate, 2 mM K^+ glutamate, 0.5 mM CaCl2, 5 mM MgCl2, 5 mM HEPES buffer). The K^+ currents were elicited in depolarizinc, steps from −100 to +40 mv in 10 mV increments every 15 seconds.
Kv1.2 currents from oocytes microinjected with either Kv1.2 mRNA, Kv1.2 and PYK2 mRNAs, or Kv1.2 and a kinase negative mutant of PYK2 mRNAs (PKN). Currents were elicited in response to depolarizing steps from −100 to +30 mV increments from a holding potential of −110 mV. Representative traces of Kv1.2 channels before and after bath application of 100 nM PMA at the annotated time (8 and 20 minutes) in the same cell.
Suppression of Kv1.2 currents in response to PMA is blocked by a kinase negative PYK2 mutant (PKN). […]

[7] = tested on: Kv1.2 channel; conditions: after 20 min incubation; as previously shown (Huang et al.); cited from earlier work
[8] = PC12 cells, agent alone, 37° C., b373: TPA 15 min, bradykinin 1 μM 1 min, A23187 2 μM 15 min, KCl 75 mM

[Cl-].[K+] [KCl, potassium chloride]
tyrosine phosphorylation of PYK2 in response to the agent [1, 8]: induces rapid tyrosine phosphorylation of PYK2

Cholera toxin
effect on the PYK-2 tyrosine phosphorylation response to TPA / bradykinin [1]: gave higher signal in combination with TPA and bradykinin | tyrosine phosphorylation of PYK2 in response to the agent [1]: didn't cause phosphorylation of PYK-2 alone

C[N+](C)(C)CCOC(N)=O [carbachol]
time of maximum tyrosine phosphorylation of Shc ([2]; transient, followed by a rapid decline): one | time after applying the agent at which PYK2 became phosphorylated on tyrosine residues ([1]; PC12 cells): 5 s | tyrosine phosphorylation of PYK2 in response to the agent [1, 8]: induces strong, tyrosine phosphorylation of PYK2

C[N+]1(C)CCN(c2ccccc2)CC1.[I-] [DMPP, 1,1-dimethyl-4-phenyl piperazinium iodide]
tyrosine phosphorylation of Shc in response to the agent [2]: induced phosphorylation of Shc

PDGF
tyrosine phosphorylation of PYK-2 in response to the agent [3]: undergoes tyrosine phosphorylation

CNc1ccc2oc(C[C@H]3O[C@@]4(CC[C@H]3C)O[C@H]([C@H](C)C(=O)c3ccc[nH]3)[C@H](C)C[C@H]4C)nc2c1C(=O)O [calcium ionophore A23187]
tyrosine phosphorylation of Kv1.2 [4]: enhanced | tyrosine phosphorylation of PYK2 in response to the agent [1, 8]: undergoes tyrosine phosphorylation; also recorded: PYK2 is phosphorylated on tyrosine residues | tyrosine phosphorylation of PYK2 in response to the agent [5]: induced a weaker response

Pertusis toxin: toxin known to positively regulate G-coupled receptor signalling
tyrosine phosphorylation of PYK2 in response to the agent [1, 8]: didn't cause any response alone | effect on the PYK-2 tyrosine phosphorylation response to TPA / bradykinin ([1]; PC12 cells, agent in combination with TPA or bradykinin): induced the response of TPA and bradykinin

aFGF: growth factor stimulus
tyrosine phosphorylation of PYK-2 in response to the agent [3]: undergoes tyrosine phosphorylation

C[C@@H]1O[C@H](C[N+](C)(C)C)C[C@H]1O [muscarine]
tyrosine phosphorylation of Shc in response to the agent [2]: had no effect

CN1[C@@H]2CC[C@H]1C[C@@H](OC(=O)C(CO)c1ccccc1)C2 (stereo partly drawn) [atropine]
effect on carbachol induced tyrosine phosphorylation of Shc [2]: had no effect

O=C(O)CN(CCOCCOCCN(CC(=O)O)CC(=O)O)CC(=O)O [EGTA, ethyleneglycol-bis (P-aminoethyl ether)-N,N,N′N′-teraacetic acid]
effect on agonist (carbachol) induced tyrosine phosphorylation of PYK2 ([1]; PC12 cells, elimination of extracellular calcium, EGTA 3 mM): completely blocked agonist induced tyrosine phosphorylation of PYK2

CNC1(C)C2CCC(C2)C1(C)C (stereo not drawn) [mecamylamine]
effect on carbachol induced tyrosine phosphorylation of Shc [2]: blocked the effect of carbachol

CCCCCCCCCCCCCC(=O)O[C@@H]1[C@@H](C)[C@@]2(O)[C@@H](C=C(CO)C[C@]3(O)C(=O)C(C)=C[C@@H]23)[C@@H]2C(C)(C)[C@]12OC(C)=O [PMA, phorbol 12-myristate 13-acetate]
inhibition of outward current ([6]; oocytes coexpressing Kv1.2 and PYK2): 95% | inhibition of outward current ([6]; oocytes expressing Kv1.2 alone): 25% | effect on Kv1.2 currents ([6]; oocytes expressing Kv1.2): caused inhibition of Kv1.2 currents | tyrosine phosphorylation of Kv1.2 [4]: enhanced | inhibition of Kv1.2 currents [7]: 80-90% | effect of prolonged PMA treatment (down-regulation of PKC) on the agent-stimulated tyrosine phosphorylation of PYK2 ([1]; PC12 cells pretreated with 100 nM PMA for 12 h): completely abolished the effect of PMA | tyrosine phosphorylation of PYK2 in response to the agent [1, 8]: induced tyrosine phosphorylation of PYK2 | tyrosine phosphorylation of PYK2 in response to the agent ([1]; PC12 cells, agent alone, 37° C., b373: TPA 15 min, bradykinin 1 μM 1 min, A23187 2 μM 15 min, KCl 75 mM, listed as TPA): undergoes tyrosine phosphorylation | tyrosine phosphorylation of PYK2 in response to the agent [5]: induced tyrosine phosphorylation
